The values below come from patent US20130202649A1, “ACTIVATION OF INNATE IMMUNITY FOR NUCLEAR REPROGRAMMING OF SOMATIC CELLS” (The Board of Trustees of the Leland Stanford Junior …, priority 2012, published 2013).

The subject of experiment [1] is human foreskin fibroblasts (BJ). The experiment in a line: Transdifferentiation of human fibroblasts to endothelial cells (FACS). The format is cell-based. Particulars: Poly I:C 30 ng/ml. As to the method:
FIG. 21: Direct reprogramming of human fibroblasts to functional endothelial cells via innate immunity activation and microenvironmental cues: (A) Protocol for direct reprogramming of human BJ fibroblasts to endothelial cells. The figure describes the time course and sequential treatments of different medias: Human fibroblasts were treated with Poly I:C (30 ng/ml) for 7 days in differentiation medium I containing DMEM/FBS and 7.5% knockout serum replacement (KSR). Following 7 days, the medium was changed to differentiation medium II containing DMEM/FBS and 10% KSR containing 20 ng/ml BMP4, 50 ng/ml VEGF and 20 ng/ml bFGF. After another 7 days, the medium was replaced with endothelial medium (EGM2) containing 50 ng/ml VEGF, 20 ng/ml bFGF and 0.1 mM 8-Br-cAMP for another 14 days. The medium was changed every 2-3 days. […] (B) Fluorescent activated cell sorting (FACs) plot of data obtained using CD31+ antibody to quantitate iECs. […]
Innate immunity (TLR3 signaling) enables efficient transdifferentiation of fibroblasts to ECs: To determine whether TLR3 signaling was necessary for efficient transdifferentiation of human fibroblasts, we assessed direct differentiation in BJ fibroblasts previously treated with scrambled shRNA or shRNA to knockdown (KD) the expression of TLR3. […]

The test system of another experiment is HDAC. The experiment in a line: HDAC expression (cDNA profiling, Western). The format is cell-based, human. The source says:
Histone acetylation status influences the folding and functional state of the chromatin and modulates the accessibility of DNA to the transcriptional machinery for gene expression. Histone de-acetylation is generally associated with a closed chromatin state, and inhibitors of histone de-acetylase (HDAC) such as valproic acid are employed to enhance nuclear reprogramming. […] The downregulation of HDAC1 expression by poly I:C was confirmed by Western analysis (FIG. 17).
Gene Expression and Microarray Analyses RNA was isolated with the RNeasy kit. First-strand cDNA was primed with oligo(dT) primers and qPCR was performed with primer sets from Applied Biosystems. RNA probes were prepared and hybridized to Illumina HumanHT-12 v4 Expression BeadChip microarrays.
(§1) Western Blotting Proteins were extracted from BJ fibroblasts by solubilizing the cells in RIPA buffer containing 1× protease inhibitor cocktail. 25 μg of total protein was loaded and resolved on SDSpolyacrylamide gels, transferred to PVDF membranes and probed with the following primary antibodies: anti-HP1α and anti-HDAC (Cell Signaling), and β-actin (Sigma, A5441). Immunoblots were developed with enhanced chemiluminescence reagents (Amersham).

The test system of experiment [2] is heterochromatin protein 1 (HP1). The experiment in a line: HP1 distribution (confocal microscopy) and expression (Western). Format: cell-based, human. The method, then:
In addition, the changes in methylation status of the Oct4 and Sox2 promoters that were accelerated by TLR3 activation were also associated with an accelerated redistribution of heterochromatin protein 1 (HP1; FIGS. 19A and 19B). HP1 that is bound to methylated H3K9 recruits the methylase Suv39h, leading to further methylation of H3K9, so as to consolidate a repressed state. The redistribution of HP1 induced by poly I:C is consistent with genome-wide epigenetic alterations induced by TLR3 activation. Histone acetylation favors an open chromatin state, maintained by proteins containing histone acetyltransferase (HAT) domains, such as p300 and CBP. NF-κB is a transcriptional effector of TLR3 activation, and interacts with CBP/p300 to positively regulate gene expression. […] This effect was mediated by TLR3, as shRNA knockdown of TLR3 or its adaptor protein TRIF1 reduced the effect of poly I:C on NF-κB activation (FIG. 20).
Heterochromatin protein-1 (HP1) is associated with the closed conformation of chromatin. […] The fact that the current work implicated TRIF signaling likely aligns with the fact that the retrovirus RNA provides adequate TLR3 signaling to trigger NF-κB, IRF3 and IFN. While TLR3 mimicked signaling from the retrovirus vector, other TLR agonists as well as agonists for NOD-like receptors, RIG-1-like receptors, cytosolic DNA sensors and C-type lectin receptors, drive a similar inflammatory response converging on NF-κB, IRF-3 and IFNβ.
as §1

Turning to “Polyinosinicpolycytidylic acid [Poly I:C]”, the “transdifferentiation of fibroblasts to iECs” value in experiment [1] is “significantly enhanced”. Besides, the “cells expressed CD31” value in experiment [1] (28 days of differentiation, FACS, relative to the vehicle control) is listed as “Approximately 2%”. Moreover, the “expression of a suite of HDAC genes” value in the experiment with HDAC (CPP treated human fibroblasts) is “downregulated”. In addition, the “HDAC 1 protein expression (immunoblot)” value in the experiment on HDAC (day 2 to day 6) is “early (day 2) and sustained (to day 6) inhibition”. Moreover, the “distribution of HP1” value in experiment [2] (co-administered with CPP-SOX2) is “marked changes in its distribution”; in experiment [2] (in the absence of the CPP), “no observable redistribution”. Moreover, the “expression of HP-1α (immunoblot)” value in experiment [2] (day 2 to day 6) is “unaffected”.
